The compounds below were run against Ras-related protein Rab-2A (Canis lupus familiaris) (UniProt P61105) (assay: fluorescent GTP competition at wildtype Rab2A – biochemical, multiplex dose response, Bodipy-FL-GTP, flow cytometry, SAR follow-up (AID 2033)). Settings: GST-Rab2 beads, Bodipy-FL-GTP binding, Ki calculated from EC50.
Ras-related protein Rab-2A (Canis lupus familiaris), sequence (P61105 whole entry, looked up): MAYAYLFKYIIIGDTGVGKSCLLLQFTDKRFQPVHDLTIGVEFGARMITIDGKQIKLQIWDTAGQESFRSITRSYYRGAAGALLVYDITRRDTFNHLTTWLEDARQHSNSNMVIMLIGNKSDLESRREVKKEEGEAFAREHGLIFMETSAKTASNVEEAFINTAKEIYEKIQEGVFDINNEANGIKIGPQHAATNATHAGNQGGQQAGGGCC

| SMILES | Ki |
| --- | --- |
| Cc1ccc(C)c(N2CCN(C(=O)CCc3nc(-c4ccccc4C)no3)CC2)c1 | 110 nM |
| COc1ccc(-c2noc(CCCC(=O)N3CCN(c4cc(C)ccc4C)CC3)n2)cc1 | 1030 nM |
| COc1cccc(-c2noc(CCC(=O)N3CCN(c4cc(C)ccc4C)CC3)n2)c1 | 250 nM |
| COc1ccc(-c2noc(CCC(=O)N3CCC(c4cc(C)ccc4C)CC3)n2)cc1 | 160 nM |
| COc1ccc(-c2ccc(CCC(=O)N3CCN(c4cc(C)ccc4C)CC3)o2)cc1 | 960 nM |
| COc1ccc(-c2noc(CCC(=O)N3CCN(c4ccccc4OC)CC3)n2)cc1 | 80 nM |
| COc1ccc(-c2noc(CCC(=O)N3CCN(c4cccc(C)c4C)CC3)n2)cc1 | 150 nM |
| COc1ccc(-c2noc(CCC(=O)N3CCN(c4ccccc4C(F)(F)F)CC3)n2)cc1 | 130 nM |
| COc1ccc(-c2noc(CCC(=O)N3CCN(c4ccccc4Cl)CC3)n2)cc1 | 150 nM |
| Cc1ccc(-c2noc(CCC(=O)N3CCN(c4cc(C)ccc4C)CC3)n2)cc1 | 260 nM |
| COc1ccc(-c2noc(CCC(=O)N3CCN(c4cccc(Cl)c4)CC3)n2)cc1 | 540 nM |
| Cc1ccc(C)c(N2CCN(C(=O)CCc3nc(-c4ccccc4)no3)CC2)c1 | 50 nM |
| Cc1ccc(C)c(N2CCN(C(=O)CCc3nc(-c4ccc(Br)cc4)no3)CC2)c1 | 190 nM |
| Cc1ccc(C)c(N2CCN(C(=O)CCc3nc(-c4cccc(Cl)c4)no3)CC2)c1 | 180 nM |
| COc1ccc(-c2noc(CCC(=O)N3CCN(c4ccc(C)cc4)CC3)n2)cc1 | 50 nM |
| COc1ccc(-c2noc(CCC(=O)N3CCN(c4ccccc4Br)CC3)n2)cc1 | 210 nM |
| Cc1ccc(C)c(N2CCN(C(=O)CCc3nc(-c4ccc(F)cc4)no3)CC2)c1 | 20 nM |
| COc1ccc(-c2noc(CCC(=O)N3CCN(c4cccc(OC)c4)CC3)n2)cc1 | 410 nM |
| COc1ccc(-c2cc(CCC(=O)N3CCN(c4cc(C)ccc4C)CC3)on2)cc1 | 160 nM |

Next, values leading:

| Ki | SMILES |
| --- | --- |
| 160 nM | COc1ccc(-c2ccc(CCC(=O)N3CCN(c4cc(C)ccc4C)CC3)s2)cc1 |
| 330 nM | COc1ccc(-c2ccc(CCC(=O)N3CCN(c4cc(C)ccc4C)CC3)[nH]2)cc1 |
| 160 nM | COc1ccc(-c2noc(CCC(=O)N3CCN(c4cc(C)ccc4C)CC3)n2)cc1 |
| 60 nM | Cc1ccc(C)c(N2CCN(C(=O)CCc3nc(-c4ccccc4F)no3)CC2)c1 |
| 50 nM | COc1ccc(-c2noc(CCC(=O)N3CCN(c4ccccc4F)CC3)n2)cc1 |
| 200 nM | Cc1ccc(C)c(N2CCN(C(=O)CCc3nc(-c4ccccc4Br)no3)CC2)c1 |
| 160 nM | COc1ccc(-c2noc(CCC(=O)N3CCN(c4ccccc4C)CC3)n2)cc1 |
| 110 nM | Cc1ccc(C)c(N2CCN(C(=O)CCc3nc(-c4ccc(Cl)cc4)no3)CC2)c1 |
| 80 nM | Cc1cccc(-c2noc(CCC(=O)N3CCN(c4cc(C)ccc4C)CC3)n2)c1 |
| 230 nM | Cc1ccc(C)c(N2CCN(C(=O)CCc3nc(-c4cccc(Br)c4)no3)CC2)c1 |

From PubChem BioAssay AID2033 (NMMLSC, 2009)
